Test results from patent publication US20240190874A1, “SMALL MOLECULE DEGRADERS OF ANDROGEN RECEPTOR” (THE REGENTS OF THE UNIVERSITY OF MICHIGAN, priority 2021, published 2024).
pIC50: −log10 of the molar value. Read-outs that look alike come from different tables or passages of the source.

Tests used:
Format in all cases: cell-based
[1] = molecular target: T1, AR (Homo sapiens, UniProt P10275); assay: Degradation of AR in VCaP cells; details: VCaP cells; for Dmax: VCaP
T1 construct: Degradation of AR; Cellular potency; host or cells: VCaP cells
T1 sequence (P10275 1-920): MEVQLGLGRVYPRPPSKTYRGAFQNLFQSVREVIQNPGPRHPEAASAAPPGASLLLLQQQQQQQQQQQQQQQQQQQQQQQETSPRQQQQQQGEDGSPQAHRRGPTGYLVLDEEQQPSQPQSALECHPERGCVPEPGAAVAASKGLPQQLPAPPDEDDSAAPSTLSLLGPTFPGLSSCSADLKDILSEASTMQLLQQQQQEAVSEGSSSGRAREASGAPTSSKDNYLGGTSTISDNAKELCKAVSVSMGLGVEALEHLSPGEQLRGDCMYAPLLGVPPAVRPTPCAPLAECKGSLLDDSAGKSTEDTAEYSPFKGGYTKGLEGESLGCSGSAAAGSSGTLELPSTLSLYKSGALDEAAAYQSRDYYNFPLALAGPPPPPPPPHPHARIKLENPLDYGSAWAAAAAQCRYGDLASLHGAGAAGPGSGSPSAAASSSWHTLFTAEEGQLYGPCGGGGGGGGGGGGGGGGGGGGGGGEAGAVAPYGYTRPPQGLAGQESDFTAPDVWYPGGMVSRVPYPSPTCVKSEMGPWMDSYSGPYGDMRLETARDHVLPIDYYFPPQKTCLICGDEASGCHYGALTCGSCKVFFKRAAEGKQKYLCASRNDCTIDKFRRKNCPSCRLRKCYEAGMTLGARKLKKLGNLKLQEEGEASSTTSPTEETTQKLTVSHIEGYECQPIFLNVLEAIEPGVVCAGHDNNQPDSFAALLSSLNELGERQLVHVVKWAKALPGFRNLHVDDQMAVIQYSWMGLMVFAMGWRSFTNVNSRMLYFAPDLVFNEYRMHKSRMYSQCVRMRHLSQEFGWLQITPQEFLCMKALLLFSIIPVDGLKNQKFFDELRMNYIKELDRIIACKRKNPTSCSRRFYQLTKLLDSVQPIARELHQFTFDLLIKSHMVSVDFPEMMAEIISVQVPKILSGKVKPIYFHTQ
Description: (§1) Biological Assays. LNCaP and VCaP cells used were purchased from American Type Culture Collection (ATCC). LNCaP were grown in RPMI 1640 (Invitrogen) and VCaP cells were grown in DMEM with Glutamax (Invitrogen). All of the cells were supplemented with 10% fetal bovine serum (Invitrogen) at 37° C. in a humidified 5% CO2 incubator.

[2] = test system: VCaP cells; assay: Cellular potency (IC50) in VCaP cells
Description: as §1

[3] = test system: LNCaP cells; assay: Cellular potency (IC50) in LNCaP cells
Description: as §1

Row | Compound | DC50 [1] | pIC50 ([2]; Homo sapiens, VCaP) | pIC50 ([3]; Homo sapiens, LNCaP) | Dmax [1] | pIC50 [2] | pIC50 [3]
1 | C[C@H]1CC2(CCN(c3ccc(CN4CCC(N5CCN(c6ccc7c(c6)C(=O)N(C6CCC(=O)NC6=O)C7=O)CC5)CC4)nn3)CC2)CN1c1ccc(C#N)c(Cl)c1 (some centres unmarked) [compound 202] | < 1 nM | > 8.00 | > 8.00 | – | – | –
2 | C[C@H]1CC2(CCN(c3ccc(N4CCC(N(C)C5CN(c6ccc7c(c6)C(=O)N(C6CCC(=O)NC6=O)C7=O)C5)CC4)nn3)CC2)CN1c1ccc(C#N)c(Cl)c1 (some centres unmarked) [compound 125] | < 10 nM | > 8.00 | > 8.00 | > 90% | – | –
3 | C[C@H]1CC2(CCN(c3ccc(CC4CCN(C5CN(c6ccc7c(c6)C(=O)N(C6CCC(=O)NC6=O)C7=O)C5)CC4)nn3)CC2)CN1c1ccc(C#N)c(Cl)c1 (some centres unmarked) [compound 198] | < 10 nM | > 8.00 | > 8.00 | – | – | –
4 | C[C@H]1CC2(CCN(c3ccc(S(=O)(=O)C4CCN(C5CCN(c6ccc7c(c6)C(=O)N(C6CCC(=O)NC6=O)C7=O)CC5)CC4)cc3)CC2)CN1c1ccc(C#N)c(Cl)c1 (some centres unmarked) [compound 161] | < 1 nM | > 8.00 | > 8.00 | – | – | –
5 | C[C@H]1CC2(CCN(c3ccc(CN4CCN(C5CCN(c6cc7c(cc6F)C(=O)N(C6CCC(=O)NC6=O)C7=O)CC5)CC4)cn3)CC2)CN1c1ccc(C#N)c(Cl)c1 (some centres unmarked) [compound 165] | < 10 nM | > 8.00 | > 8.00 | – | – | –
6 | C[C@H]1CC2(CCN(c3ccc(N4CCC(N(C)C5CN(c6ccc7c(c6)C(=O)N(C6CCC(=O)NC6=O)C7=O)C5)CC4)cc3)CC2)CN1c1ccc(C#N)c(Cl)c1 (stereo partly drawn) [compound 119, 2-chloro-4-((3S)-8-(4-(4-((1-(2-(2,6-dioxopiperidin-3-yl)-1,3-dioxoisoindolin-5-yl)azetidin-3-yl)(methyl)amino)piperidin-1-yl)phenyl)-3-methyl-2,8-diazaspiro[4.5]decan-2-yl)benzonitrile] | – | > 8.00 | > 8.00 | > 90% | – | –
7 | C[C@H]1CC2(CCN(c3ccc(CN4CC(C5CCN(c6ccc7c(c6)C(=O)N(C6CCC(=O)NC6=O)C7=O)CC5)C4)nc3)CC2)CN1c1ccc(C#N)c(Cl)c1 (some centres unmarked) [compound 179] | < 10 nM | > 7.00 | > 8.00 | – | – | –
8 | C[C@H]1CC2(CCN(c3ccc(OC4CCN(C5CN(c6cc7c(cc6F)C(=O)N(C6CCC(=O)NC6=O)C7=O)C5)CC4)nc3)CC2)CN1c1ccc(C#N)c(Cl)c1 (some centres unmarked) [compound 133] | < 1 nM | > 8.00 | > 8.00 | > 90% | – | –
9 | C[C@H]1CC2(CCN(c3ccc(OC4CCN(C5CN(c6cc7c(cc6F)C(=O)N(C6CCC(=O)NC6=O)C7=O)C5)CC4)nn3)CC2)CN1c1ccc(C#N)c(Cl)c1 (some centres unmarked) [compound 134] | < 1 nM | > 8.00 | > 8.00 | > 90% | – | –
10 | C[C@H]1CC2(CCN(c3ccc(CN4CCC(C5CN(c6ccc7c(c6)C(=O)N(C6CCC(=O)NC6=O)C7=O)C5)CC4)c(F)c3)CC2)CN1c1ccc(C#N)c(Cl)c1 (some centres unmarked) [compound 9] | < 1 nM | – | – | > 90% | > 8.00 | > 8.00
11 | C[C@H]1CC2(CCN(c3ccc(OC4CCN(C5CN(c6cc7c(cc6F)C(=O)N(C6CCC(=O)NC6=O)C7=O)C5)CC4)cc3)CC2)CN1c1ccc(C#N)c(Cl)c1 (some centres unmarked) [compound 131] | < 1 nM | > 8.00 | > 8.00 | > 90% | – | –
12 | C[C@H]1CC2(CCN(c3ccc(N4CCC(CN5Cc6cc7c(cc6C5)C(=O)N(C5CCC(=O)NC5=O)C7=O)CC4)nn3)CC2)CN1c1ccc(C#N)c(Cl)c1 (some centres unmarked) [compound 56] | < 10 nM | > 7.00 | > 7.00 | > 90% | – | –
13 | C[C@H]1CC2(CCN(c3ccc(N4CC(N(C)C5CN(c6ccc7c(c6)C(=O)N(C6CCC(=O)NC6=O)C7=O)C5)C4)cc3)CC2)CN1c1ccc(C#N)c(Cl)c1 (some centres unmarked) [compound 121] | < 100 nM | > 7.00 | > 7.00 | 70 to 90% | – | –
14 | C[C@H]1CC2(CCN(c3ccc(S(=O)(=O)C4CN(C(=O)CN5Cc6cc7c(cc6C5)C(=O)N(C5CCC(=O)NC5=O)C7=O)C4)cc3)CC2)CN1c1ccc(C#N)c(Cl)c1 (some centres unmarked) [compound 149] | < 1 nM | > 7.00 | > 8.00 | – | – | –
15 | C[C@H]1CC2(CCN(c3ccc(N4CCC(OC5CN(c6ccc7c(c6)C(=O)N(C6CCC(=O)NC6=O)C7=O)C5)CC4)nc3)CC2)CN1c1ccc(C#N)c(Cl)c1 (some centres unmarked) [compound 91] | < 1 nM | > 8.00 | > 8.00 | > 90% | – | –
16 | C[C@H]1CC2(CCN(c3ccc(N4CCN(C5CN(c6ccc7c(c6)C(=O)N(C6CCC(=O)NC6=O)C7=O)C5)CC4)cn3)CC2)CN1c1ccc(C#N)c(Cl)c1 (some centres unmarked) [compound 33] | < 10 nM | > 8.00 | > 8.00 | 70 to 90% | – | –
17 | C[C@H]1CC2(CCN(c3ccc(CN4CCC(C5CN(c6ccc7c(c6)C(=O)N(C6CCC(=O)NC6=O)C7=O)C5)CC4)nc3)CC2)CN1c1ccc(C#N)c(Cl)c1 (some centres unmarked) [compound 177] | < 1 nM | > 8.00 | > 8.00 | – | – | –
18 | C[C@H]1CC2(CCN(c3ccc(CN4CCN(C5CN(c6ccc7c(c6)C(=O)N(C6CCC(=O)NC6=O)C7=O)C5)CC4)nn3)CC2)CN1c1ccc(C#N)c(Cl)c1 (some centres unmarked) [compound 173] | < 1 nM | > 7.00 | > 8.00 | – | – | –
19 | C[C@H]1CC2(CCN(c3ccc(N4CCN(CC5CN(c6ccc7c(c6)C(=O)N(C6CCC(=O)NC6=O)C7=O)C5)CC4)cc3)CC2)CN1c1ccc(C#N)c(Cl)c1 (stereo partly drawn) [compound 28, 2-chloro-4-((3S)-8-(4-(4-((1-(2-(2,6-dioxopiperidin-3-yl)-1,3-dioxoisoindolin-5-yl)azetidin-3-yl)methyl)piperazin-1-yl)phenyl)-3-methyl-2,8-diazaspiro[4.5]decan-2-yl)benzonitrile] | – | > 8.00 | > 8.00 | > 90% | – | –
20 | C[C@H]1CC2(CCN(c3ccc(S(=O)(=O)C4CCN(C(=O)CN5Cc6cc7c(cc6C5)C(=O)N(C5CCC(=O)NC5=O)C7=O)CC4)cc3)CC2)CN1c1ccc(C#N)c(Cl)c1 (some centres unmarked) [compound 152] | < 1 nM | > 7.00 | > 7.00 | – | – | –
21 | C[C@H]1CC2(CCN(c3ccc(OC4CN(C5CCN(c6ccc7c(c6)C(=O)N(C6CCC(=O)NC6=O)C7=O)CC5)C4)cc3)CC2)CN1c1ccc(C#N)c(Cl)c1 (some centres unmarked) [compound 60] | < 1 nM | > 8.00 | > 8.00 | > 90% | – | –
22 | C[C@H]1CC2(CCN(c3ncc(C(=O)N4CCC(N5Cc6cc7c(cc6C5)C(=O)N(C5CCC(=O)NC5=O)C7=O)CC4)s3)CC2)CN1c1ccc(C#N)c(Cl)c1 (some centres unmarked) [compound 139] | < 10 nM | > 7.00 | > 7.00 | 70 to 90% | – | –
23 | C[C@H]1CC2(CCN(c3ccc(N4CCN(CC5CN(c6ccc7c(c6)C(=O)N(C6CCC(=O)NC6=O)C7=O)C5)CC4)nc3)CC2)CN1c1ccc(C#N)c(Cl)c1 (some centres unmarked) [compound 34] | < 1 nM | > 8.00 | > 8.00 | > 90% | – | –
24 | C[C@H]1CC2(CCN(c3ccc(C(=O)N4CCC(N5Cc6cc7c(cc6C5)C(=O)N(C5CCC(=O)NC5=O)C7=O)CC4)s3)CC2)CN1c1ccc(C#N)c(Cl)c1 (some centres unmarked) [compound 138] | < 10 nM | > 7.00 | > 7.00 | 70 to 90% | – | –
25 | C[C@H]1CC2(CCN(c3ccc(N4CCN(CC5CCN(c6ccc7c(c6)C(=O)N(C6CCC(=O)NC6=O)C7=O)CC5)CC4)nn3)CC2)CN1c1ccc(C#N)c(Cl)c1 (some centres unmarked) [compound 48] | < 1 nM | > 8.00 | > 8.00 | > 90% | – | –
